Format in all cases: cell-based
Experiment [1] relates to SW 480 human colonic tumour cell line. In words: Growth inhibition test (MTT) for cytotoxic properties, SW 480. Conditions: SW 480 cells. On the procedure:
(§1) 1. Growth Inhibition Test for the Determination of Cytotoxic Properties
(§2) They were then trypsinized and taken up in RPMI plus 10% FCS to give a cell count of 50,000 cells/ml. 100 μl of cell suspension/well were added to a 96 microwell plate and incubated for 1 day at 37° C. in a CO2 incubator. A further 100 μl of RPMI medium and 1 μl of DMSO were then added with the test substances. The growth was checked after day 3 and day 6. To do this, 40 μl of MTT solution (3-(4,5-dimethylthiazol-2-yl)-2,5-diphenyl-tetrazolin bromide) were added to each microwell at a starting concentration of 5 mg/ml of H2O. Incubation was carried out at 37° C. for 5 hours in the CO2 incubator. The medium was then aspirated and 100 μl of i-propanol/well were added. After shaking for 30 min with 100 μl of H2O, the extinction was measured at 540 nm using a Titertek Multiskan MCC/340 (flow).
(§3) The cytotoxic action is indicated in Table 1 as an IC50 value in each case for the SW 480 and HT 29 and B16F10 cell lines: […]

Experiment [2] relates to B16F10 mouse melanoma cell line. In words: Growth inhibition test (MTT) for cytotoxic properties, B16F10. To be noted: B16F10 cells. On the procedure:
as §1, §2, §3

Experiment [3] deals with HT 29 human colonic tumour cell line. Put plainly: Growth inhibition test (MTT) for cytotoxic properties, HT 29. Conditions: HT 29 cells. The method, then: as §1, §2, §3

Counter-ions that a name gives are not always drawn. Some results are limits rather than exact numbers.

For orientation: IC50 means the point on the concentration scale where inhibition reaches its midpoint. A high value points to a need for much substance. As to `CC(NC(=S)Nc1ccc(O)cc1)C(=O)NC1C=CCC2CN(c3c(F)cc4c(=O)c(C(=O)O)cn(C5CC5)c4c3Cl)CC21` (racemic) [2.1), N-[N-(4-Hydroxy-phenylamino-thiocarbonyl)-alanyl]-quinolone-a], the IC50 in experiment [1] is 20000 nM; in experiment [2] it was 9000 nM; in experiment [3], 9000 nM.

Turning to `CC(NC(=S)Nc1ccc(O)cc1)C(=O)NC1C=CCC2CN(c3c(F)cc4c(=O)c(C(=O)O)cn(C5CC5)c4c3Cl)CC21` (racemic) [2.2), N-[N-(4-Hydroxy-phenylamino-thiocarbonyl)-D-alanyl]-quinolone-a], the 50% inhibitory concentration (IC50) was 15000 nM in experiment [1], 4000 nM in experiment [2] and 6000 nM in experiment [3].

For the molecule `NCCC(NC(=S)Nc1ccc(O)cc1)C(=O)NC1C=CCC2CN(c3c(F)cc4c(=O)c(C(=O)O)cn(C5CC5)c4c3Cl)CC21` (racemic) [2.3), N-[N^α-(4-Hydroxy-phenylamino-thiocarbonyl)-α,γ-diaminobutyryl]-quinolone-a, hydrochloride], the values for the IC50 in experiment [1], in experiment [2] and in experiment [3] were 900 nM, 200 nM and 700 nM, respectively.

With `O=C(O)c1cn(C2CC2)c2c(Cl)c(N3CC4CC=CC(NC(=O)C(CCCCNC(=S)Nc5ccc(O)cc5)NC(=S)Nc5ccc(O)cc5)C4C3)c(F)cc2c1=O` (racemic) [2.5), N-[N^α,N^ε-bis-(4-Hydroxy-phenylamino-thiocarbonyl)-D-lysyl]-quinolone-a], the IC50 is 200000 nM in experiment [1], 200000 nM in experiment [2] and over 200000 nM in experiment [3].

For `NCCCC(NC(=S)Nc1ccc(O)cc1)C(=O)NC1C=CCC2CN(c3c(F)cc4c(=O)c(C(=O)O)cn(C5CC5)c4c3Cl)CC21` (racemic) [2.6), N-[N^α-(4-Hydroxy-phenylamino-thiocarbonyl)-ornithyl]-quinolone-a, hydrochloride], the concentration for half-maximal inhibition (IC50) in experiment [1] amounted to 200 nM; in experiment [2], 60 nM; in experiment [3] it was 300 nM.

Turning to `NCCCCC(NC(=S)Nc1ccc(N=C=S)cc1)C(=O)NC1C=CCC2CN(c3c(F)cc4c(=O)c(C(=O)O)cn(C5CC5)c4c3Cl)CC21` (racemic) [2.8), N-[N^α-(4-Isothiocyanato-phenylamino-thiocarbonyl)-lysyl]-quinolone-a], the concentration for half-maximal inhibition (IC50) in experiment [1] turned out to be 200 nM; in experiment [2], 100 nM; in experiment [3], 100 nM.

For `NCCCCC(NC(=S)Nc1ccc(C(=O)O)cc1)C(=O)NC1C=CCC2CN(c3c(F)cc4c(=O)c(C(=O)O)cn(C5CC5)c4c3Cl)CC21` (racemic) [2.9), N-[N^α-(4-Carboxy-phenylamino-thiocarbonyl)-lysyl]-quinolone-a], the results for the half-inhibitory concentration (IC50) in experiment [1], in experiment [2] and in experiment [3] were 2000 nM, 1000 nM and 2000 nM, respectively.

For `CN(C(=S)NC(CCCCN)C(=O)NC1C=CCC2CN(c3c(F)cc4c(=O)c(C(=O)O)cn(C5CC5)c4c3Cl)CC21)c1ccccc1` (racemic) [2.10), N-[N^α-(Phenyl-methyl-amino-thiocarbonyl)-lysyl]-quinolone-a], the results for the IC50 in experiment [1], in experiment [2] and in experiment [3] were 2000 nM, 400 nM and 2000 nM, respectively.

Turning to `CC(NC(=O)C(CCCCN)NC(=S)Nc1ccc(O)cc1)C(=O)NC1C=CCC2CN(c3c(F)cc4c(=O)c(C(=O)O)cn(C5CC5)c4c3Cl)CC21` (racemic) [2.11), N-[N^α-(4-Hydroxy-phenylamino-thiocarbonyl)-lysyl-D-alanyl]-quinolone-a], the half-maximal inhibitory concentration (IC50) was determined as 60000 nM in experiment [1], 30000 nM in experiment [2] and 150000 nM in experiment [3].

For `NCCCC[C@H](NC(=S)Nc1ccc(O)cc1)C(=O)Nc1ccc2c(c1)CN1C(=O)c3ccccc3C1=N2` [1.2), N-[N^α-(4-Hydroxy-phenylamino-thiocarbonyl)-lysyl]-batracylin], the half-inhibitory concentration (IC50) in experiment [1] stood at 25000 nM; in experiment [3], 40000 nM.

Take `NC(CCCCNC(=S)Nc1ccc(O)cc1)C(=O)Nc1ccc2c(c1)CN1C(=O)c3ccccc3C1=N2` (centres unmarked) [1.3), N-[N^ε-(4-Hydroxy-phenylamino-thiocarbonyl)-lysyl]-batracylin]: the half-maximal inhibitory concentration (IC50) in experiment [1] came to 45000 nM; in experiment [3], 70000 nM.

`C[C@@H](NC(=O)[C@H](CCCCN)NC(=S)Nc1ccc(O)cc1)C(=O)Nc1ccc2nc3n(c(=O)c2c1)Cc1ccccc1-3` [1.4), N-[N^α-(4-Hydroxy-phenylamino-thiocarbonyl)-lysyl-D-alanyl]-batracylin]: the IC50 amounted to 40000 nM in experiment [1], 30000 nM in experiment [2] and 40000 nM in experiment [3].

With `CC(NC(=O)C(CO)NC(=S)Nc1ccc(O)cc1)C(=O)Nc1ccc2c(c1)CN1C(=O)c3ccccc3C1=N2` [1.5), N-[N-(4-Hydroxy-phenylamino-thiocarbonyl)-seryl-D-alanyl]-batracylin], the IC50 in experiment [1] turned out to be 250000 nM; in experiment [3], 400000 nM.

Turning to `CC(NC(=O)C(CCC(=O)O)NC(=S)Nc1ccc(O)cc1)C(=O)Nc1ccc2nc3n(c(=O)c2c1)Cc1ccccc1-3` [1.6), N-[N-(4-Hydroxy-phenylamino-thiocarbonyl)-glutamyl-D-alanyl]-batracylin], the IC50 turned out to be 550000 nM in experiment [1] and 800000 nM in experiment [3].

Turning to `COc1cccc2c1C(=O)c1c(O)c3c(c(O)c1C2=O)C[C@@](O)(C(=O)CO)C[C@@H]3O[C@H]1C[C@H](NC(=O)C(C)NC(=O)C(CCCCN)NC(=S)Nc2ccc(O)cc2)[C@H](O)[C@H](C)O1` (stereo partly drawn) [3), N-[N^α-(4-Hydroxy-phenylamino-thiocarbonyl)-lysyl-alanyl]-doxorubicin], the half-maximal inhibitory concentration (IC50) in experiment [1] came out at 3000 nM; in experiment [2] it was 1000 nM; in experiment [3], 2000 nM.

Consider `CC[C@@]1(OC(=O)C(C)NC(=O)C(CCCCN)NC(=S)Nc2ccc(O)cc2)C(=O)OCc2c1cc1n(c2=O)Cc2cc3ccccc3nc2-1` (stereo partly drawn) [4.1), 20-O-[N^α-(4-Hydroxy-phenylamino-thiocarbonyl)-lysyl-alanyl]-camptothecin], for which the IC50 in experiment [1] amounted to 10 nM; in experiment [2], 100 nM; in experiment [3], 20 nM.

Take `CCC1(OC(=O)C(CC(C)C)NC(=O)C(CCCCN)NC(=S)Nc2ccc(O)cc2)C(=O)OCc2c1cc1n(c2=O)Cc2cc3ccccc3nc2-1` (stereo not drawn) [4.2), 20-O-[N^α-(4-Hydroxy-phenylamino-thiocarbonyl)-lysyl-leucyl]-camptothecin, hydrochloride]: the 50% inhibitory concentration (IC50) in experiment [1] is 70 nM; in experiment [2] it was 300 nM; in experiment [3], 60 nM.

On to `CCC1(OC(=O)C(Cc2ccccc2)NC(=O)C(CCCCN)NC(=S)Nc2ccc(O)cc2)C(=O)OCc2c1cc1n(c2=O)Cc2cc3ccccc3nc2-1` (stereo not drawn) [4.3), 20-O-[N^α-(4-Hydroxy-phenylamino-thiocarbonyl)-lysyl-phenyl-alanyl]-camptothecin], for which the IC50 in experiment [1] was determined as 20 nM; in experiment [2] it was 100 nM; in experiment [3], 20 nM.

Take `CC[C@@]1(OC(=O)C(NC(=O)C(CCCCN)NC(=S)Nc2ccc(C(=O)O)cc2)C(C)C)C(=O)OCc2c1cc1n(c2=O)Cc2cc3ccccc3nc2-1` (stereo partly drawn) [4.5), 20-O-[N^α-(4-Carboxy-phenylamino-thiocarbonyl)-lysyl-valyl]-camptothecin, hydrochloride]: the values for the half-maximal inhibitory concentration (IC50) in experiment [1], in experiment [2] and in experiment [3] were 300 nM, 800 nM and 200 nM, respectively.

In the case of `CC[C@@]1(OC(=O)C(NC(=O)C(CCCCN)NC(=S)Nc2ccc(Cl)cc2)C(C)C)C(=O)OCc2c1cc1n(c2=O)Cc2cc3ccccc3nc2-1` (stereo partly drawn) [4.6), 20-O-[N^α-(4-Chloro-phenylamino-thiocarbonyl)-lysyl-valyl]-camptothecin, hydrochloride], the half-inhibitory concentration (IC50) in experiment [1] stood at 200 nM; in experiment [2], 500 nM; in experiment [3] it was 150 nM.

Consider `CC[C@@]1(OC(=O)[C@@H](NC(=O)[C@H](CCCCN)NC(=S)Nc2ccccc2)C(C)C)C(=O)OCc2c1cc1n(c2=O)Cc2cc3ccccc3nc2-1` [4.7), 20-O-[N^α-(Phenylamino-thiocarbonyl)-lysyl-valyl]-camptothecin, hydrochloride], for which the IC50 worked out at 100 nM in experiment [1], 300 nM in experiment [2] and 60 nM in experiment [3].

On to `CCC1(OC(=O)C(NC(=O)C(CCCCN)NC(=S)N(C)c2ccccc2)C(C)C)C(=O)OCc2c1cc1n(c2=O)Cc2cc3ccccc3nc2-1` (stereo not drawn) [4.8), 20-O-[N^α-(Phenyl-methyl-amino-thiocarbonyl)-lysyl-valyl]-camptothecin, hydrochloride], for which the half-inhibitory concentration (IC50) in experiment [1] came to 300 nM; in experiment [2], 800 nM; in experiment [3], 150 nM.

`CCC1(OC(=O)[C@@H](C)NC(=O)C(CCCCNC(=S)Nc2ccc(O)cc2)NC(=S)Nc2ccc(O)cc2)C(=O)OCc2c1cc1n(c2=O)Cc2cc3ccccc3nc2-1` (stereo partly drawn) [4.10), 20-O-[N^α,N^ε-bis-(4-Hydroxy-phenylamino-thiocarbonyl)-lysyl-D-alanyl]-camptothecin]: the IC50 in experiment [1] was determined as 20 nM; in experiment [2], 200 nM; in experiment [3], 10 nM.

For the molecule `CCC1(OC(=O)[C@H](Cc2ccccc2)NC(=O)[C@H](CCCCNC(=S)Nc2ccc(O)cc2)NC(=S)Nc2ccc(O)cc2)C(=O)OCc2c1cc1n(c2=O)Cc2cc3ccccc3nc2-1` (stereo partly drawn) [4.11), 20-O-[N^α,N^ε-bis-(4-Hydroxy-phenylamino-thiocarbonyl)-lysyl-phenylalanyl]-camptothecin], the figures for the half-maximal inhibitory concentration (IC50) in experiment [1], in experiment [2] and in experiment [3] were 60 nM, 200 nM and 30 nM, respectively.

The record behind these values is patent publication US20020173468A1, “MODIFIED CYTOSTATIC AGENTS” (priority 1996, published 2002).
